According to patent EP0068680A1, “Antibiotics” (BEECHAM GROUP PLC, priority 1981, dated 1983):
In brackets after ≈: the same amount, converted by molar mass. Like-named read-outs stand apart in the source and are kept apart here.

Columns and labels:
M. suipneumoniae NB12 = test: MIC against Mycoplasma in vitro (agar); assay type: cell-based; conditions: Friis broth solidified with 0.9% agarose, 6 days at 37°C
M. suipneumoniae JF 435 = test: MIC against Mycoplasma in vitro (agar); assay type: cell-based; conditions: Friis broth solidified with 0.9% agarose, 6 days at 37°C
[1] = system: M. suipneumoniae J2206/183^b; test: MIC against Mycoplasma in vitro (agar); assay type: cell-based; conditions: Friis broth solidified with 0.9% agarose, 6 days at 37°C
M. suipneumoniae MS 16 = test: MIC against Mycoplasma in vitro (agar); assay type: cell-based; conditions: Friis broth solidified with 0.9% agarose, 6 days at 37°C
[2] = system: M. suipneumoniae PW/C/210; test: MIC against Mycoplasma in vitro (agar); assay type: cell-based; conditions: Friis broth solidified with 0.9% agarose, 6 days at 37°C
M. suipneumoniae LABER = test: MIC against Mycoplasma in vitro (agar); assay type: cell-based; conditions: Friis broth solidified with 0.9% agarose, 6 days at 37°C
M. suipneumoniae UCD 1 = test: MIC against Mycoplasma in vitro (agar); assay type: cell-based; conditions: Friis broth solidified with 0.9% agarose, 6 days at 37°C
M. suipneumoniae TAM 6N = test: MIC against Mycoplasma in vitro (agar); assay type: cell-based; conditions: Friis broth solidified with 0.9% agarose, 6 days at 37°C
[3] = system: M. suipneumoniae NCTC 10110; test: MIC against Mycoplasma in vitro (agar); assay type: cell-based; conditions: Friis broth solidified with 0.9% agarose, 6 days at 37°C
M. hyorhinis ATCC 23234 = test: MIC against Mycoplasma in vitro (agar); assay type: cell-based; conditions: Friis broth solidified with 0.9% agarose, 6 days at 37°C
M. hyorhinis ATCC 25021 = test: MIC against Mycoplasma in vitro (agar); assay type: cell-based; conditions: Friis broth solidified with 0.9% agarose, 6 days at 37°C
[4] = system: M. hyosynoviae ATCC 25591; test: MIC against Mycoplasma in vitro (agar); assay type: cell-based; conditions: Friis broth solidified with 0.9% agarose, 6 days at 37°C
M. bovis NCTC 10131 = test: microbe, parasite or virus in culture; assay type: cell-based
[5] = system: M. bovigenitalium ATCC 14173; test: MIC against Mycoplasma in vitro (agar); assay type: cell-based; conditions: Friis broth solidified with 0.9% agarose, 6 days at 37°C
M. gallisepticum S6 = test: MIC against Mycoplasma in vitro (agar); assay type: cell-based; conditions: Friis broth solidified with 0.9% agarose, 6 days at 37°C
E. coli NCTC 10418 [6] = test: MIC against Human Bacteria in vitro (agar dilution); assay type: cell-based; conditions: 18 hours at 37°C
E. coli ESS = test: as above; assay type: cell-based; conditions: agar with 5% chocolated horse blood, 18 hours at 37°C
P. mirabilis 889 = test: as above; assay type: cell-based; conditions: agar with 5% chocolated horse blood, 18 hours at 37°C
[7] = system: Ps. aeruginosa NCTC 10662; test: as above; assay type: cell-based; conditions: 18 hours at 37°C
[8] = system: Pasteurella multocida 1633; test: as above; assay type: cell-based; conditions: agar with 5% chocolated horse blood, 18 hours at 37°C
[9] = system: Haemophilus influenzae Q1; test: as above; assay type: cell-based; conditions: agar with 5% chocolated horse blood, 18 hours at 37°C
[10] = system: Neisseria catarrhalis 1502; test: as above; assay type: cell-based; conditions: agar with 5% chocolated horse blood, 18 hours at 37°C
Bacillus subtilis 6633 = test: as above; assay type: cell-based; conditions: agar with 5% chocolated horse blood, 18 hours at 37°C
[11] = system: Corynebacterium xerosis 9755; test: as above; assay type: cell-based; conditions: agar with 5% chocolated horse blood, 18 hours at 37°C
Sarcina lutea 8340 = test: as above; assay type: cell-based; conditions: agar with 5% chocolated horse blood, 18 hours at 37°C
Staph. aureus Oxford = test: as above; assay type: cell-based; conditions: agar with 5% chocolated horse blood, 18 hours at 37°C
Staph. aureus Russell = test: as above; assay type: cell-based; conditions: agar with 5% chocolated horse blood, 18 hours at 37°C
Staph. aureus W2827 = test: as above; assay type: cell-based; conditions: agar with 5% chocolated horse blood, 18 hours at 37°C
Strep. faecalis I = test: as above; assay type: cell-based; conditions: agar with 5% chocolated horse blood, 18 hours at 37°C
Strep. pyogenes B2788 = test: as above; assay type: cell-based; conditions: agar with 5% chocolated horse blood, 18 hours at 37°C
E. coli NCTC 10418 [12] = test: MIC against Veterinary Bacteria in vitro (agar dilution)
Description: (§1) The activity of the compounds of the Examples against various veterinarily important bacteria, was assayed in vitro using two-fold serial dilutions in Diagnostic Sensitivity Test Agar inoculated with 10^4 organisms.

E. coli E1 = test: as above
Description: as §1

S. dublin S7 = test: as above
Description: as §1

S. typhimurium S18 = test: as above
Description: as §1

Bord. bronchiseptica B08 = test: as above
Description: as §1

Past. multocida PA1 = test: as above
Description: as §1

Past. haemolytica PA5 = test: as above
Description: as §1

[13] = system: Erysipelothrix rhusiopathiae NCTC 8163; test: as above
Description: as §1

[14] = system: Staph. aureus 152 (pen. sens); test: as above
Description: as §1

[15] = system: Strep. suis (group D) SPS11; test: as above
Description: as §1

Strep. uberis SPU1 = test: as above
Description: as §1

Strep. dysgalactiae SPD1 = test: as above
Description: as §1

[16] = agar with 5% chocolated horse blood
[17] = Mesomycoplasma hyopneumoniae, 144 h, read-out: MIC
[18] = Staphylococcus aureus, read-out: MIC

Compound: Methyl pseudomonate D [Example 2]
- MIC (M. suipneumoniae NB12): 5.0 µg/mL
- MIC (M. suipneumoniae JF 435): 5.0 µg/mL
- MIC [1]: 5.0 µg/mL
- MIC (M. suipneumoniae MS 16): 2.5 µg/mL
- MIC [2]: 2.5 µg/mL
- MIC (M. suipneumoniae LABER): 2.5 µg/mL
- MIC (M. suipneumoniae UCD 1): 5.0 µg/mL
- MIC (M. suipneumoniae TAM 6N): 10 µg/mL
- MIC [3]: 5.0 µg/mL
- MIC (M. hyorhinis ATCC 23234): 1.0 µg/mL
- MIC (M. hyorhinis ATCC 25021): 1.0 µg/mL
- MIC [4]: 0.5 µg/mL
- MIC (M. bovis NCTC 10131; M. bovis NCTC 10131, Friis broth solidified with 0.9% agarose, 6 days at 37°C): 0.05 µg/mL
- MIC [5]: 0.1 µg/mL
- MIC (M. gallisepticum S6): >10 µg/mL
- MIC (E. coli NCTC 10418 [6]; [16]): >100 µg/mL
- MIC (E. coli ESS): 1.0 µg/mL
- MIC (P. mirabilis 889): >100 µg/mL
- MIC [7, 16]: >100 µg/mL
- MIC [8]: 0.5 µg/mL
- MIC [9]: 0.5 µg/mL
- MIC [10]: 0.5 µg/mL
- MIC (Bacillus subtilis 6633): 0.5 µg/mL
- MIC [11]: >100 µg/mL
- MIC (Sarcina lutea 8340): >100 µg/mL
- MIC (Staph. aureus Oxford): 0.5 µg/mL
- MIC (Staph. aureus Russell): 2.5 µg/mL
- MIC (Staph. aureus W2827): 1.0 µg/mL
- MIC (Strep. faecalis I): >100 µg/mL
- MIC (Strep. pyogenes B2788): 2.5 µg/mL
- MIC (E. coli NCTC 10418 [12]; E. coli NCTC 10418, Diagnostic Sensitivity Test Agar, 18 hours at 37°C): 40 µg/mL
- MIC (E. coli E1; E. coli E1, Diagnostic Sensitivity Test Agar, 18 hours at 37°C): 40 µg/mL
- MIC (S. dublin S7; S. dublin S7, Diagnostic Sensitivity Test Agar, 18 hours at 37°C): 80 µg/mL
- MIC (S. typhimurium S18; S. typhimurium S18, Diagnostic Sensitivity Test Agar, 18 hours at 37°C): 80 µg/mL
- MIC (Bord. bronchiseptica B08; Bord. bronchiseptica B08, Diagnostic Sensitivity Test Agar, 18 hours at 37°C): 40 µg/mL
- MIC (Past. multocida PA1; Past. multocida PA1, Diagnostic Sensitivity Test Agar, 18 hours at 37°C): 10 µg/mL
- MIC (Past. haemolytica PA5; Past. haemolytica PA5, Diagnostic Sensitivity Test Agar, 18 hours at 37°C): 1.25 µg/mL
- MIC ([13]; Erysipelothrix rhusiopathiae NCTC 8163, Diagnostic Sensitivity Test Agar, 18 hours at 37°C): 20 µg/mL
- MIC ([14]; Staph. aureus 152 (pen. sens), Diagnostic Sensitivity Test Agar, 18 hours at 37°C): 0.625 µg/mL
- MIC ([15]; Strep. suis (group D) SPS11, Diagnostic Sensitivity Test Agar, 18 hours at 37°C): 0.625 µg/mL
- MIC (Strep. uberis SPU1; Strep. uberis SPU1, Diagnostic Sensitivity Test Agar, 18 hours at 37°C): 5.0 µg/mL
- MIC (Strep. dysgalactiae SPD1; Strep. dysgalactiae SPD1, Diagnostic Sensitivity Test Agar, 18 hours at 37°C): 0.156 µg/mL

Compound: CC(=CC(=O)OCCCCC=CCCC(=O)O)CC1OCC(CC2OC2C(C)C(C)O)C(O)C1O (stereo not drawn) [Example 1, pseudomonic acid D]
- MIC (M. suipneumoniae NB12; [17]): 1 µg/mL (≈ 2.01 µM)
- MIC (M. suipneumoniae JF 435; Mesomycoplasma hyopneumoniae, JF435, 144 h, read-out: MIC): 5 µg/mL (≈ 10 µM)
- MIC [1, 17]: 2.5 µg/mL (≈ 5.01 µM)
- MIC (M. suipneumoniae MS 16; Mesomycoplasma hyopneumoniae, MS16, 144 h, read-out: MIC): 2.5 µg/mL (≈ 5.01 µM)
- MIC [2, 17]: 1 µg/mL (≈ 2.01 µM)
- MIC (M. suipneumoniae LABER; [17]): 2.5 µg/mL (≈ 5.01 µM)
- MIC (M. suipneumoniae UCD 1; Mesomycoplasma hyopneumoniae, UCD1, 144 h, read-out: MIC): 5 µg/mL (≈ 10 µM)
- MIC (M. suipneumoniae TAM 6N; Mesomycoplasma hyopneumoniae, TAM6N, 144 h, read-out: MIC): 5 µg/mL (≈ 10 µM)
- MIC ([3]; Mesomycoplasma hyopneumoniae, NCTC10110, 144 h, read-out: MIC): 5 µg/mL (≈ 10 µM)
- MIC (M. hyorhinis ATCC 23234; Mesomycoplasma hyorhinis, ATCC23234, 144 h, read-out: MIC): 1 µg/mL (≈ 2.01 µM)
- MIC (M. hyorhinis ATCC 25021; Mesomycoplasma hyorhinis, ATCC25021, 144 h, read-out: MIC): 1 µg/mL (≈ 2.01 µM)
- MIC ([4]; 144 h, read-out: MIC): 0.5 µg/mL (≈ 1 µM)
- MIC (M. bovis NCTC 10131; NCTC10131, 144 h): 0.05 µg/mL (≈ 0.1 µM)
- MIC ([5]; 144 h, read-out: MIC): 0.1 µg/mL (≈ 0.201 µM)
- MIC (M. gallisepticum S6; Mycoplasmoides gallisepticum, 144 h, read-out: MIC): > 10 µg/mL
- MIC (E. coli NCTC 10418 [6]; Escherichia coli, NCTC10418, agar with 5% chocolated horse blood, read-out: MIC): > 25 µg/mL
- MIC (E. coli ESS; Escherichia coli, read-out: MIC): 1 µg/mL (≈ 2.01 µM)
- MIC (P. mirabilis 889; Proteus mirabilis, read-out: MIC): > 25 µg/mL
- MIC ([7]; Pseudomonas aeruginosa, NCTC10662, agar with 5% chocolated horse blood, read-out: MIC): > 25 µg/mL
- MIC ([8]; read-out: MIC): 0.25 µg/mL (≈ 0.501 µM)
- MIC ([9]; read-out: MIC): 0.25 µg/mL (≈ 0.501 µM)
- MIC ([10]; read-out: MIC): 0.5 µg/mL (≈ 1 µM)
- MIC (Bacillus subtilis 6633; read-out: MIC): 1 µg/mL (≈ 2.01 µM)
- MIC ([11]; read-out: MIC): > 25 µg/mL
- MIC (Sarcina lutea 8340; Micrococcus luteus, read-out: MIC): > 25 µg/mL
- MIC (Staph. aureus Oxford; [18]): 1 µg/mL (≈ 2.01 µM)
- MIC (Staph. aureus Russell; [18]): 1 µg/mL (≈ 2.01 µM)
- MIC (Staph. aureus W2827; [18]): 1 µg/mL (≈ 2.01 µM)
- MIC (Strep. faecalis I; Enterococcus faecalis, read-out: MIC): > 25 µg/mL
- MIC (Strep. pyogenes B2788; Streptococcus pyogenes, read-out: MIC): 0.5 µg/mL (≈ 1 µM)
- MIC (E. coli NCTC 10418 [12]; Escherichia coli, NCTC10418, 18 h): > 20 µg/mL
- MIC (E. coli E1; Escherichia coli, E1, 18 h): > 20 µg/mL
- MIC (S. dublin S7; Salmonella enterica, S7, 18 h): > 20 µg/mL
- MIC (S. typhimurium S18; Salmonella enterica, TYPHIMURIUM, 18 h): > 20 µg/mL
- MIC (Bord. bronchiseptica B08; Bordetella bronchiseptica, B08, 18 h): 10 µg/mL (≈ 20.1 µM)
- MIC (Past. multocida PA1; Pasteurella multocida, PA1, 18 h): 0.156 µg/mL (≈ 0.313 µM)
- MIC (Past. haemolytica PA5; Mannheimia haemolytica, PA5, 18 h): 2.5 µg/mL (≈ 5.01 µM)
- MIC ([13]; Erysipelothrix rhusiopathiae, NCTC8163, 18 h): 10 µg/mL (≈ 20.1 µM)
- MIC ([14]; Staphylococcus aureus, 18 h): 0.312 µg/mL (≈ 0.626 µM)
- MIC ([15]; Streptococcus suis, 18 h): 1.25 µg/mL (≈ 2.51 µM)
- MIC (Strep. uberis SPU1; Streptococcus uberis, SPU1, 18 h): 0.039 µg/mL (≈ 0.0782 µM)
- MIC (Strep. dysgalactiae SPD1; Streptococcus dysgalactiae, SPD1, 18 h): 0.156 µg/mL (≈ 0.313 µM)
